Laboratory results published in paper PMC3136501 (PLoS ONE, 2011).
Where two headings read alike, the source gives them in different places.

How the values were obtained:
[1] = Pharmacokinetic data of PPIs in humans; type: in vivo; conditions: maximal total concentration in portal venous blood
[2] = humans, maximal total concentration in systemic circulation, cited from earlier work
[3] = design: method as in earlier work; conditions: computed property from PubChem Compound database; cited from earlier work
human OCT3 = molecular target: T1, human OCT3 (Homo sapiens, UniProt O75751); test: Inhibition of OCT3-mediated metformin uptake in stably transfected HEK cells; type: cell-based; conditions: for IC50: 5 µM [14C]metformin uptake, 5 min, HEK-OCT3, means ± SE of 3 experiments; for OCT3-mediated metformin uptake at low PPI concentrations: low concentrations of PPI, Figure 3
T1 sequence (O75751 1-556): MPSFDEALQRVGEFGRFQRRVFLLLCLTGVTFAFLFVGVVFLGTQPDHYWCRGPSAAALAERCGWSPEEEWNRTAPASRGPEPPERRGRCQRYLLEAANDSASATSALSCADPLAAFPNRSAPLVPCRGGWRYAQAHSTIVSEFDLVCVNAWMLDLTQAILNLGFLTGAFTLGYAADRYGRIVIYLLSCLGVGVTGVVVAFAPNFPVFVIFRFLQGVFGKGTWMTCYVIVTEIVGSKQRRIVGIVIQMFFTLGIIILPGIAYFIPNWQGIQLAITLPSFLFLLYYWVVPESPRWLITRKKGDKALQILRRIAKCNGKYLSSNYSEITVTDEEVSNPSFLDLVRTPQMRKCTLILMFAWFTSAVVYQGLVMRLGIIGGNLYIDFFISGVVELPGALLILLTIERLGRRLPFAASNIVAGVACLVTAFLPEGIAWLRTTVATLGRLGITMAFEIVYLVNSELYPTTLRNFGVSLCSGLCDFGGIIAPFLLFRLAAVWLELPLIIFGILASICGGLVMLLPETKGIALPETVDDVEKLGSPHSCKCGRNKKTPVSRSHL
Procedure: SLC22A1 cDNA and SLC22A2 cDNA had been PCR-amplified from human liver and kidney, respectively, as reported elsewhere and cDNAs were provided by the German Cancer Research Center; the study and the use of the tissue were approved by the institutional review board of the German Cancer Center, Heidelberg, Germany. Since the data were analyzed anonymously, and tissues were left-over samples from diagnostic procedures, written informed consent had not been required and obtained. IRB specifically waived the need for consent due to the fact the human tissue material used was fully anonymized. SLC22A3 cDNA was amplified using SLC22A3-TrueClone (Origene, Rockville, MD, USA) as the template. SLC22A1 cDNA was cloned into the expression vector pcDNA3.1/Hygro(-) (Invitrogen, Darmstadt, Germany), SLC22A2 and SLC22A3 cDNA into pcDNA3.1(+) (Invitrogen). Each transporter cDNA was sequenced and the respective deduced amino acid sequence was identical to the published reference protein sequence (OCT1: NP_003048.1; OCT2: NP_003049.2; OCT3: NP_068812.1). The human embryonic kidney 293 (HEK) cell line was obtained from the American Type Culture Collection. HEK cells were grown in DMEM (Sigma) supplemented with 10% fetal bovine serum (Sigma), 100 U⋅ml^−1 penicillin, and 100 µg⋅ml^−1 streptomycin (Lonza, Basel, Switzerland) at 37°C and 5% CO2. HEK cells were transfected with Metafectene Pro (Biontex, München, Germany). Selection of clones stably expressing OCT1 was carried out with 0.5 mg⋅ml^−1 hygromycin as described. Similarly, clones stably expressing OCT2 or OCT3 were selected with 800 µg⋅ml^−1 G418. HEK cells stably transfected with the empty pcDNA3.1(+) vector served as controls (HEK-Co). Cells were incubated with 5 mM butyrate 24 h before use to increase protein levels of recombinant transporters.
HEK cells (400000 cells/well) were seeded into 24-well cell culture plates (Greiner Bio-One, Frickenhausen, Germany) and grown for 48 h. Cell adherence was improved by coating plates with poly-L-lysine (Biochrom AG, Berlin, Germany) prior to cell plating. All uptake studies were carried out at 37°C as described. For uptake measurements, cells were firstly washed with uptake buffer (145 mM NaCl, 5 mM hydroxyethylpiperazine ethanesulfonic acid, 3 mM KCl, 1 mM CaCl2, 0.5 mM MgCl2, 5 mM glucose, pH 7.4, [46]) prewarmed to 37°C. […] Uptake was stopped at indicated time points by removing the uptake buffer and immediately washing the cells 3 times with ice-cold uptake buffer. Cells were lysed with 0.2% SDS and intracellular radioactivity was determined by liquid scintillation counting (Hidex 300SL TDCR liquid scintillation counter, Turku, Finland). For measuring inhibition of OCT-mediated metformin uptake by PPIs, 5 µM [^14C]metformin uptake was measured in the presence of different PPI concentrations and stopped after 5 min (OCT1, OCT3) or 5 sec (OCT2).
OCT-specific metformin uptake was obtained by subtracting metformin uptake in the presence of 2 mM unlabeled 1-methyl-4-phenylpyridinium (MPP) from that in its absence. […] OCT-specific metformin uptake in the presence of a PPI was then calculated as percentage of that in the absence of the respective PPI (100% uninhibited). For each PPI concentration, 3 individual experiments each with 3 parallel measurements were performed. Apparent IC50 values for inhibition of metformin uptake by PPIs were calculated for each individual experiment by fitting the values to the Hill equation using GraphPad Prism 4 (GraphPad Software Inc., La Jolla, CA, USA). Values in Table 1 are given as the means ± SE of the 3 individual experiments.

OCT2 = system: OCT2; design: method as in PMID 21103969; conditions: transport substrate; cited from earlier work
OCT1 = system: OCT1; design: method as in PMID 21103969; conditions: transport substrate; cited from earlier work
OCT3 = system: OCT3; design: method as in PMID 21103969; conditions: transport substrate; cited from earlier work

Structure (SMILES) | Heavy atom count [3] | Tautomer count [3] | IC50 (human OCT3) [µM] | OCT3-mediated metformin uptake at low PPI concentrations (human OCT3) | further results
Cc1c(OCC(F)(F)F)ccnc1C[S+]([O-])c1nc2ccccc2[nH]1 (centres unmarked) [Lansoprazole] | 25 | 0 | 3.1 ± 1.3 | – | Calculated Cport.vn. ([1]; equation 1 in ref 56, dosage 30 mg (81 µmol)): 7.8 µM; Cmax ([2]; dosage 30 mg (81 µmol)): 2700 nM
C[n+]1ccc(-c2ccccc2)cc1 [MPP, 1-methyl-4-phenylpyridinium] | – | – | – | – | Km (OCT2): 3 to 19 µM; Km (OCT1): 15 to 32 µM; Km (OCT3): 47 to 83 µM; Metformin uptake by HEK-OCT3 in the presence of MPP (human OCT3; 5 µM metformin, 2 mM unlabeled MPP): almost completely absent
COc1ccc2[nH]c([S+]([O-])Cc3ncc(C)c(OC)c3C)nc2c1 (centres unmarked) [Omeprazole] | 24 | 2 | 22 ± 2.2 | – | Calculated Cport.vn. ([1]; equation 1 in ref 56, dosage 20 mg (58 µmol)): 5.4 µM; Cmax ([2]; dosage 20 mg (58 µmol)): 1800 nM
COc1ccnc(C[S+]([O-])c2nc3ccc(OC(F)F)cc3[nH]2)c1OC (centres unmarked) [Pantoprazole] | 26 | 2 | 22.9 ± 5.2 | activated | Calculated Cport.vn. ([1]; equation 1 in ref 56, dosage 40 mg (104 µmol)): 12.0 µM; Cmax ([2]; dosage 40 mg (104 µmol)): 5500 nM
COCCCOc1ccnc(C[S+]([O-])c2nc3ccccc3[nH]2)c1C (centres unmarked) [Rabeprazole] | 25 | 0 | 3 ± 0.8 | activated | Calculated Cport.vn. ([1]; equation 1 in ref 56, dosage 20 mg (56 µmol)): 4.7 µM; Cmax ([2]; dosage 20 mg (56 µmol)): 1200 nM
COc1ccc2[nH]c([S+]([O-])Cc3ncc(C)c(OC)c3C)nc2n1 (centres unmarked) [Tenatoprazole] | 24 | 3 | 14.7 ± 2.4 | activated | Calculated Cport.vn. ([1]; equation 1 in ref 56, dosage 40 mg (116 µmol)): 17.2 µM; Cmax ([2]; dosage 40 mg (116 µmol)): 10000 nM
